The subject of assay [1] is CD46 cell surface expression on RPMI8226 cells. The assay can be described thus: CD46 cell surface expression on RPMI8226 cells by FACS / flow cytometry. The format is cell-based. The note with it: for CD46 cell surface expression (MFI, flow cytometry): RPMI8226, 7 days 37° C.; for CD46 upregulation on RPMI8226 cells: 7-day exposure to varying concentrations, FACS on day-7; for CD46 expression (FACS): RPMI8226 cells treated with IMiDs for 3 and 10 days. As for the experimental part: Example 1: CD46 upregulation by exposure to pomalidomide and lenalidomide (FIGS. 1-2). The effect of pomalidomide and lenalidomide exposure to multiple myeloma (RPMI8226) cells was studied. RPMI8226 cells were treated with IMiDs (Pomalidomide and Lenalidomide) for 3 and 10 days (FIG. 1). CD46 expression was analyzed by FACS. CD38 was also measured as a reference. IMiDs-induced cell surface upregulation was observed only to selective antigens, e.g., CD46 but not CD38.
FACS was performed on day-7. […] FACS was performed on day-14.
FIG. 6: The multiple myeloma cell line RPMI8226 was incubated with 10 μM pomalidamide (pom) for 14 days, washed, and further incubated with 10 nM dexamethasone (dex) for 7 days. Cell surface CD46 expression was assessed by flow cytometry. MFI: median fluorescence intensity. Multiple group comparison was performed using One-way ANOVA. ** p<0.01; ****p<0.0001.
Methods: RMPI8226 cells were exposed to varying concentrations of the Stat3 inhibitor C188-9 and the glucocorticoid receptor inhibitor mifepristone for 7 days at 37° C. in culture media, and cell surface CD46 expression is detected by flow cytometry using the anti-CD46 antibody YS5 followed by AlexaFluo-617 labeled anti-human Fc secondary antibody. MFI (median fluorescence intensity) was recorded and analyzed by One-way ANOVA.

The target in another assay is T1, CD46 (human, UniProt P15529 35-392).
T1 construct: whole, on cells; also called cell surface CD46
T1 sequence (looked up): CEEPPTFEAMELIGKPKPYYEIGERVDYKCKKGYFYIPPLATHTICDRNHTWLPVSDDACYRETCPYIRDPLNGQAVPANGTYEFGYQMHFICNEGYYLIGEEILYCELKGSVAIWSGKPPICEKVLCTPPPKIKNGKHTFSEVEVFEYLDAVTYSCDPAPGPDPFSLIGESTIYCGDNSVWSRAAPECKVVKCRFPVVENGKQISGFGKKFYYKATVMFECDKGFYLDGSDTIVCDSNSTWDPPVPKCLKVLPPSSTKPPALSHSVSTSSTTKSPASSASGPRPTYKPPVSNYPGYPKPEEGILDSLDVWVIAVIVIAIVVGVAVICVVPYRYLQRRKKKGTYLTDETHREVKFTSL
The assay can be described thus: flow cytometry on RPMI8226 cells with a labelled anti-human Fc secondary antibody. As for the experimental part: MFI (median fluorescence intensity) was recorded and analyzed by One-way ANOVA.

As to `CC#C[C@]1(O)CC[C@H]2[C@@H]3CCC4=CC(=O)CCC4=C3[C@@H](c3ccc(N(C)C)cc3)C[C@@]21C` [mifepristone], the “CD46 cell surface expression (MFI, flow cytometry)” value in assay [1] (mifepristone at high concentrations (50 μM)) was “inhibits”. Turning to `Nc1cccc2c1CN(C1CCC(=O)NC1=O)C2=O` (stereo not drawn) [lenalidomide], in assay [1], the “CD46 upregulation on RPMI8226 cells” value was “upregulation” and the “CD46 expression (FACS)” value is reported as “upregulation”. As for `Nc1cccc2c1C(=O)N(C1CCC(=O)NC1=O)C2=O` (stereo not drawn) [pomalidomide], in assay [1], the “CD46 upregulation on RPMI8226 cells” value was “upregulation” and the “CD46 expression (FACS)” value is given as “upregulation”. Further, the “CD46 upregulation on multiple myeloma cell surface” value in assay [1] (prior exposure for a short period (7-10 days)) was “rather persistent CD46 upregulation”. As for `COc1ccc(S(=O)(=O)Nc2cc(-c3c(O)ccc4ccccc34)c(O)c3ccccc23)cc1` [C188-9, N-(1′, 2-Dihydroxy-1,2′-binaphthalen-4′-yl)-4-methoxybenzenesulfonamide], the “CD46 cell surface expression (MFI, flow cytometry)” value in assay [1] (high concentrations (50 μM)) is “inhibits”; in assay [1] (low/mid concentrations (10 and 20 μM)), “stimulates”.

B1: YS5 (antibody, human IgG1, lambda, V domains shown)
VH: QVQLVQSGGGVVQPGRSLRLACAASGLTVNNYAMHWVRQAPGKGLEWVAVISYDGNNKYYADSVKGRFTISRDNSKNTLYLQMNSLRAEDTAVYYCAKGGGYFDLWGRGTLVTVSS
VL: QSVLTQPPSVSGAPGQRVTISCTGSSSNIGAGYDVHWYQQLPGTAPKLLIYGNNNRPSGVPDRFSGSKSGTSASLAITGLQAEDEADYYCSSYTSGTWLFGGGTKLTVLG
notes: The format used in the assay is not otherwise stated; also called YS5FL; anti-CD46 antibody YS5
Regarding B1, the binding result with CD46 is “binds”.

The values above are taken from US20240101699A1, “MODULATION OF CD46 CELL SURFACE EXPRESSION AND THERAPEUTIC USE THEREOF” (The Regents of the University of California, priority 2021, published 2024).
